The text below walks through data of patent US8648105B2, “Diarylthiohydantoin compounds” (The Regents of the University of California, priority 2006, dated 2014).

One data set is described as follows: LogP. It counts as physicochemical.
The test system of data set [1] is LN-AR(HR) cell line tumors. The data set can be described thus: LN-AR(HR) cell line tumors in SCID mice (FIG. 19). It counts as in vivo. Conditions: 10 mg per kg body weight per day. An excerpt:
(A) The relative tumor volume as a function of time shown for each set of mice. (B) Images of each set of mice with photon emission associated with luciferase activity at day 31 shown as color contours. (C) Rate of photon emission associated with luciferase activity shown at several times for each set of mice.

The test system of a further data set is urogenital tract. The data set can be described thus: Luciferase transgenic mice with testosterone pellet, urogenital tract weight and photon emission (FIG. 22). The data set is classed as in vivo. Conditions: castrated mice with testosterone pellet, 10 mg/kg per day, 14 days. As to the method: FIG. 22 presents results of an experiment conducted with wild type nontransgenic mice (WT), castrated luciferase transgenic mice (Cast), and non-castrated luciferase transgenic mice (Intact). Data are shown for castrated luciferase transgenic mice treated with an implanted testosterone pellet yielding 12.5 mg per kilogram body weight with a 90 day release period (T/Cast), and data are shown for non-castrated luciferase transgenic mice treated with an implanted testosterone pellet yielding 12.5 mg per kilogram body weight with a 90 day release period (Intact+T). […]. (A) Urogenital tract weight at 14 days. (B) Photon emission rate at 14 days. In all cases, a hormone refractory disease state was not induced.
[…]. Moreover, the higher the dose, the lower the PSA level. […]. The weight and rate of photon emission increased for both intact and castrated mice.

Data set [2] concerns the target T1, androgen receptor (Homo sapiens, UniProt P10275, T878A).
T1 sequence (P10275 1-920 T878A): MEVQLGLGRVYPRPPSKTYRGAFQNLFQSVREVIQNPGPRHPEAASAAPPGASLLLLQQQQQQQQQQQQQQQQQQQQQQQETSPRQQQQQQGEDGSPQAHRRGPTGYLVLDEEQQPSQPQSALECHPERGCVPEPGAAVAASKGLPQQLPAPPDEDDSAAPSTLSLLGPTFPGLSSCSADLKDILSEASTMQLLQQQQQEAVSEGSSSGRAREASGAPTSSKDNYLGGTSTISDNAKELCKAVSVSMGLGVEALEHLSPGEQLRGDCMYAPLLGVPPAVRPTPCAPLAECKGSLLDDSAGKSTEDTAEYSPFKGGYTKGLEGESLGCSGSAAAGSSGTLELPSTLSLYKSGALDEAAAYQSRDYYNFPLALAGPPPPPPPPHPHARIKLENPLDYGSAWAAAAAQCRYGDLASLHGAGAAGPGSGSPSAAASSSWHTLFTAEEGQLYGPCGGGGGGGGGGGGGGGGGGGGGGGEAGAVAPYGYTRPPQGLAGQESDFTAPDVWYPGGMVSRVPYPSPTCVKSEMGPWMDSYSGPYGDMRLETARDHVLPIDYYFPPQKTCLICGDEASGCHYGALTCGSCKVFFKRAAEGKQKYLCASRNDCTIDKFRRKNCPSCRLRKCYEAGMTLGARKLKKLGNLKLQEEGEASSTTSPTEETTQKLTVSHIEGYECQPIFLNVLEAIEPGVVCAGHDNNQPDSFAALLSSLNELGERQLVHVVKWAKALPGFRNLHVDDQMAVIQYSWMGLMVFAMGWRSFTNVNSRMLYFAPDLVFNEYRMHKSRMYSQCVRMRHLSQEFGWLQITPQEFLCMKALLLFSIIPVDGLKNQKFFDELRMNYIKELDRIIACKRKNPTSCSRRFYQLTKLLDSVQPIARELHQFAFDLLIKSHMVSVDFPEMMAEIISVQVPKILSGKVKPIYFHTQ
The conditions noted are these: 10 uM (R1881 1 nM), LNCaP.

In data set [3] the target is T1, androgen receptor. The conditions noted are these: 10 uM, 24 hours, with or without 100 pM R1881, LNCaP.
Data set [4] has as its target T2, AR (Homo sapiens, UniProt P10275).
T2 sequence (P10275 1-920): T1 sequence (P10275 1-920 T878A) with A878T
The data set is classed as cell-based. Set-up: Fold induction, AR response reporter. The protocol:
It is well established that PSA levels are indicators of AR activities in prostate cancer. […] The LNCaP-AR cells are a line of lymph node carcinoma of prostate cells transduced with a plasmid that makes express androgen receptors. […] After four days incubation, secreted PSA levels were assayed using PSA ELISA kits (American Qualex, San Clemente, Calif.)

For data set [5], the target named is T2, AR. The data set is classed as cell-based. Also on record: rows headed: IC50 (nM) Reporter; Fold induction, AR response reporter; agonistic activity on AR response reporter (w). The conditions noted are these: 125 nM to 1000 nM, FIG. 3. As to the method:
The compounds were subjected to tests using an artificial AR response reporter system in a hormone refractory prostate cancer cell line. […] After two days of incubation, reporter activities were assayed.

Changes are numbered by the printed parent chain. Entries after “also recorded” stand apart in the source; their conditions may differ.

Turning to `CNC(=O)c1ccc(N2C(=S)N(c3ccc(C#N)c(C(F)(F)F)c3)C(=O)C23CCC3)cc1F` [NC53, N-methyl-4-[7-(4-cyano-3-trifluoromethylphenyl)-8-oxo-6-thioxo-5,7-diaza-spiro[3.4]oct-5-yl]-2-fluorobenzamide], in the data set “LogP”, the lipophilicity (logP) was 3.2. Further, the “tumor size and photon emission associated with luciferase activity” value in data set [1] is “decrease or stabilization of tumor size and a decrease in photon emission associated with luciferase activity”. Also, in the data set on urogenital tract, the “urogenital tract weight and photon emission” value is “decrease in weight and photon emission”. For the same compound, the “androgen receptor nuclear translocation” value on androgen receptor [2] is “inhibited androgen receptor nuclear translocation”. Besides, on androgen receptor [3], the “androgen receptor protein level” value is reported as “destabilized androgen receptor proteins; also recorded: androgen receptor protein is degraded”. Further, the “PSA levels of LN-AR cells” value at AR [4] (100, 200, 500, and 1000 nM, FIG. 20) was “PSA levels of LN-AR cells decreased”. In addition, the PSA levels result at AR [4] (LN-AR cells, FIG. 23) is listed as “PSA levels decreased”. For the same compound, the “luciferase activity in LNCaP-AR cells” value on AR [5] is given as “acted to reduce luciferase activity”.
